Measured values published in PMC4303209, “A novel phosphatidylinositol 3-kinase (PI3K) inhibitor directs a potent FOXO-dependent, p53-independent cell cycle arrest phenotype characterized by the differential induction of a subset of FOXO-regulated genes” (Breast Cancer Research : BCR, 2014).

Tested on: MCF-7 breast cancer cells
Test: Microarray gene expression analysis (Agilent whole human genome 4 x 44K; compound vs DMSO, LIMMA log2 fold change)
Type: cell-based
[1] = MCF-7, 100nM, six hours, 1.5-fold expression change threshold

Oc1cccc(-c2nc(N3CCOCC3)c3oc4ncccc4c3n2)c1 [PI-103]
ESCO1 log2FC (Gene 114799, cell cycle genes): 0.45
UHRF2 log2FC (Gene 115426, cell cycle genes): 0.51
KLHDC3 log2FC (Gene 116138, cell cycle genes): 0.0341
CNTROB log2FC (Gene 116840, cell cycle genes): 0.23
NEDD1 log2FC (Gene 121441, cell cycle genes): 0.35
HEXIM2 log2FC (Gene 124790, cell cycle genes): 0.87
ARL8A log2FC (Gene 127829, cell cycle genes): 0.56
UHMK1 log2FC (Gene 127933, cell cycle genes): -0.17
IQGAP3 log2FC (Gene 128239, cell cycle genes): 0.35
NUP35 log2FC (Gene 129401, cell cycle genes): -0.36
MITD1 log2FC (Gene 129531, cell cycle genes): 0.71
NUDT16 log2FC (Gene 131870, cell cycle genes): -0.23
ZFP42 log2FC (Gene 132625, cell cycle genes): -0.0323
JMY log2FC (Gene 133746, cell cycle genes): 1.01
HUS1B log2FC (Gene 135458, cell cycle genes): -0.84
NEK7 log2FC (Gene 140609, cell cycle genes): 0.11
CTCFL log2FC (Gene 140690, cell cycle genes): -0.0211
PSMA8 log2FC (Gene 143471, cell cycle genes): 0.0738
SESN3 log2FC (Gene 143686, cell cycle genes): 0.12
PIWIL4 log2FC (Gene 143689, cell cycle genes): 0.27
E2F7 log2FC (Gene 144455, cell cycle genes): -0.38
RAD9B log2FC (Gene 144715, cell cycle genes): -0.00292
KCTD11 log2FC (Gene 147040, cell cycle genes): 0.28
PYHIN1 log2FC (Gene 149628, cell cycle genes): -0.0139
PPP1R1C log2FC (Gene 151242, cell cycle genes): 0.09
SGOL2 log2FC (Gene 151246, cell cycle genes): 0.87
SGOL1 log2FC (Gene 151648, cell cycle genes): 0.42
ROPN1B log2FC (Gene 152015, cell cycle genes): 0.0015
DAB2IP log2FC (Gene 153090, cell cycle genes): 0.03
CDCA2 log2FC (Gene 157313, cell cycle genes): 0.46
ESCO2 log2FC (Gene 157570, cell cycle genes): 0.48
SASS6 log2FC (Gene 163786, cell cycle genes): 0.49
WBP2NL log2FC (Gene 164684, cell cycle genes): -0.0843
THAP5 log2FC (Gene 168451, cell cycle genes): 0.10
FLCN log2FC (Gene 201163, cell cycle genes): 0.78
STRA13 log2FC (Gene 201254, cell cycle genes): -0.39
TUBB log2FC (Gene 203068, cell cycle genes): -0.55
REEP3 log2FC (Gene 221035, cell cycle genes): -0.29
C6orf89 log2FC (Gene 221477, cell cycle genes): -0.38
SPDYA log2FC (Gene 245711, cell cycle genes): -0.01
CDC26 log2FC (Gene 246184, cell cycle genes): -0.67
ASPM log2FC (Gene 259266, cell cycle genes): 1.14
SLC39A5 log2FC (Gene 283375, cell cycle genes): 0.05
GAS2L3 log2FC (Gene 283431, cell cycle genes): 0.53
NSMCE2 log2FC (Gene 286053, cell cycle genes): 0.84
LIN9 log2FC (Gene 286826, cell cycle genes): 1.23
TMPRSS11A log2FC (Gene 339967, cell cycle genes): 0.0013
NUP43 log2FC (Gene 348995, cell cycle genes): 0.24
APITD1 log2FC (Gene 378708, cell cycle genes): 0.07
SETD8 log2FC (Gene 387893, cell cycle genes): -0.04
PIM3 log2FC (Gene 415116, cell cycle genes): 0.64
PIWIL3 log2FC (Gene 440822, cell cycle genes): -0.09
expression of FOXO-dependent apoptosis genes including TNFSF10, BCL211 and FASLG (array) (MCF-7): did not significantly change
number of differentially expressed genes [1]: more than 2,000
number of induced (upregulated) genes [1]: 1,293
number of repressed (downregulated) genes [1]: 886
CCND1, SPRY2 and MMP9 expression (array) (MCF-7, FOXO target genes): significantly downregulated
expression of CCNG2, KLHL24, DDIT3, CITED2 and RICTOR (array) (MCF-7, FOXO target genes): significantly upregulated
MAD1L1 log2FC (cell cycle genes): -0.14
ACSL5 log2FC (gene ACSL5 (51703), apoptosis genes): 0.058
log2FC (gene ACTR1A (Gene 10121), cell cycle genes): -0.13
ADAMTS20 log2FC (gene ADAMTS20 (80070), apoptosis genes): -0.005
ADIPOQ log2FC (gene ADIPOQ (9370), apoptosis genes): -0.040
ADRA1A log2FC (gene ADRA1A (148), apoptosis genes): 0.010
AGTR2 log2FC (gene AGTR2 (186), apoptosis genes): 0.044
log2FC AKAP8 (gene AKAP8 (Gene 10270), cell cycle genes): -0.20
ALB log2FC (gene ALB (213), apoptosis genes): -0.044
ALOX12 log2FC (gene ALOX12 (239), apoptosis genes): -0.144
ALX3 log2FC (gene ALX3 (257), apoptosis genes): 0.013
ALX4 log2FC (gene ALX4 (60529), apoptosis genes): -0.036
log2FC (gene ANAPC13 (Gene 25847), cell cycle genes): -0.30
ANKRD13C log2FC (gene ANKRD13C (81573), apoptosis genes): -0.007
APBB1 log2FC (gene APBB1 (322), apoptosis genes): 0.356
APOH log2FC (gene APOH (350), apoptosis genes): 0.052
AQP1 log2FC (gene AQP1 (358), apoptosis genes): -0.011
ARHGAP10 log2FC (gene ARHGAP10 (79658), apoptosis genes): -0.061
ARHGEF6 log2FC (gene ARHGEF6 (9459), apoptosis genes): -0.152
ARHGEF16 log2FC (gene ARHGEF16 (27237), apoptosis genes): 0.275
ARHGEF18 log2FC (gene ARHGEF18 (23370), apoptosis genes): -0.106
ATOH1 log2FC (gene ATOH1 (474), apoptosis genes): -0.042
ATPIF1 log2FC (gene ATPIF1 (93974), apoptosis genes): 0.131
log2FC (gene ATR (Gene 545), cell cycle genes): 0.11
log2FC (gene BAD (Gene 572), cell cycle genes): 0.53
BCL2L10 log2FC (gene BCL2L10 (10017), apoptosis genes): -0.066
BDKRB2 log2FC (gene BDKRB2 (624), apoptosis genes): -0.025
BIRC2 log2FC (gene BIRC2 (329), apoptosis genes): -0.339
BIRC8 log2FC (gene BIRC8 (112401), apoptosis genes): -0.038
BMP2 log2FC (gene BMP2 (650), apoptosis genes): -0.233
log2FC (gene BMP4 (Gene 652), cell cycle genes): 0.22
BMP5 log2FC (gene BMP5 (653), apoptosis genes): -0.019
BOK log2FC (gene BOK (666), apoptosis genes): 0.093
log2FC (gene BRE (Gene 9577), cell cycle genes): -0.21
BTK log2FC (gene BTK (695), apoptosis genes): 0.086
log2FC (gene BUB1B (Gene 701), cell cycle genes): 0.15
C1QBP log2FC (gene C1QBP (708), apoptosis genes): -0.112
C3orf38 log2FC (gene C3orf38 (285237), apoptosis genes): -0.159
log2FC (gene CAMK2B (Gene 816), cell cycle genes): 0.01
CAPN3 log2FC (gene CAPN3 (825), apoptosis genes): -0.026
log2FC CAPN3 (gene CAPN3 (Gene 825), cell cycle genes): -0.0259
CARD9 log2FC (gene CARD9 (64170), apoptosis genes): 0.028
CARD14 log2FC (gene CARD14 (79092), apoptosis genes): 0.056
log2FC (gene CASP3 (Gene 836), cell cycle genes): 0.31
CASP10 log2FC (gene CASP10 (843), apoptosis genes): 0.088
CASP12 log2FC (gene CASP12 (120329), apoptosis genes): 0.062
CCK log2FC (gene CCK (885), apoptosis genes): -0.021
CCL19 log2FC (gene CCL19 (6363), apoptosis genes): 0.205
log2FC (gene CCNB2 (Gene 9133), cell cycle genes): 0.20
log2FC (gene CCNH (Gene 902), cell cycle genes): 0.14
log2FC (gene CCNT2 (Gene 905), cell cycle genes): 0.14
CD38 log2FC (gene CD38 (952), apoptosis genes): 0.042
CD40LG log2FC (gene CD40LG (959), apoptosis genes): -0.017
CD248 log2FC (gene CD248 (57124), apoptosis genes): 0.046
log2FC (gene CDC73 (Gene 79577), cell cycle genes): 0.33
CDH1 log2FC (gene CDH1 (999), apoptosis genes): 0.556
log2FC CDH13 (gene CDH13 (Gene 1012), cell cycle genes): 0.0463
log2FC CDK2AP1 (gene CDK2AP1 (Gene 8099), cell cycle genes): -0.15
CDK5 log2FC (gene CDK5 (1020), apoptosis genes): 0.184
log2FC CDK5RAP1 (gene CDK5RAP1 (Gene 51654), cell cycle genes): 0.0451
log2FC CDKN2B (gene CDKN2B (Gene 1030), cell cycle genes): -0.0758
log2FC (gene CENPJ (Gene 55835), cell cycle genes): 0.11
log2FC (gene CENPK (Gene 64105), cell cycle genes): 0.33
log2FC (gene CETN3 (Gene 1070), cell cycle genes): 0.33
log2FC (gene CHEK2 (Gene 11200), cell cycle genes): 0.11
CHIA log2FC (gene CHIA (27159), apoptosis genes): -0.110
CIDEA log2FC (gene CIDEA (1149), apoptosis genes): -0.071
CLC log2FC (gene CLC (1178), apoptosis genes): -0.00153
CLEC5A log2FC (gene CLEC5A (23601), apoptosis genes): -0.040
CLSPN log2FC (gene CLSPN (63967), apoptosis genes): -0.114
CNTFR log2FC (gene CNTFR (1271), apoptosis genes): -0.050
COL2A1 log2FC (gene COL2A1 (1280), apoptosis genes): -0.00236
COL4A3 log2FC (gene COL4A3 (1285), apoptosis genes): 0.543
COMP log2FC (gene COMP (1311), apoptosis genes): -0.113
log2FC (gene COPS5 (Gene 10987), cell cycle genes): 0.16
log2FC (gene CRLF3 (Gene 51379), cell cycle genes): 0.14
log2FC (gene CSNK2B (Gene 1460), cell cycle genes): -0.06
CST3 log2FC (gene CST3 (1471), apoptosis genes): 0.253
CTLA4 log2FC (gene CTLA4 (1493), apoptosis genes): 0.009
CXCR4 log2FC (gene CXCR4 (7852), apoptosis genes): 0.375
CYR61 log2FC (gene CYR61 (3491), apoptosis genes): -0.258
DAPK2 log2FC (gene DAPK2 (23604), apoptosis genes): -1.207
DAXX log2FC (gene DAXX (1616), apoptosis genes): -0.040
log2FC DAXX (gene DAXX (Gene 1616), cell cycle genes): -0.04
log2FC (gene DCLRE1B (Gene 64858), cell cycle genes): -0.35
log2FC (gene DDX11 (Gene 1663), cell cycle genes): -0.27
DDX47 log2FC (gene DDX47 (51202), apoptosis genes): -0.196
DEDD2 log2FC (gene DEDD2 (162989), apoptosis genes): 0.214
DFFB log2FC (gene DFFB (1677), apoptosis genes): -0.041
log2FC (gene DIAPH2 (Gene 1730), cell cycle genes): 0.38
log2FC DIRAS3 (gene DIRAS3 (Gene 9077), cell cycle genes): 0.0278
DMPK log2FC (gene DMPK (1760), apoptosis genes): 0.273
DNM2 log2FC (gene DNM2 (1785), apoptosis genes): 0.271
DPF1 log2FC (gene DPF1 (8193), apoptosis genes): -0.250
log2FC ECD (gene ECD (Gene 11319), cell cycle genes): -0.23
EGR3 log2FC (gene EGR3 (1960), apoptosis genes): 0.187
EGR4 log2FC (gene EGR4 (1961), apoptosis genes): 0.222
ELMO1 log2FC (gene ELMO1 (9844), apoptosis genes): 0.209
EPB41L3 log2FC (gene EPB41L3 (23136), apoptosis genes): 0.039
